Laboratory results published in patent US9738634B2, “Heterocyclic amide compound and herbicide” (SYNGENTA PARTICIPATIONS AG, priority 2013, dated 2017).

Assays:
Format in all cases: in vivo
Conditions in all cases: treatment dosage 320 g/ha
birds-eye speedwell [1] = experiment: Test Example 3: weedkilling efficacy through soil treatment; p: birds-eye speedwell
Outline: (§1)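 Crop and weed responses were judged three weeks after a uniform surface spray of the water-diluted emulsion at the given g/ha rate. Seeds sat beneath about 1.5 cm of sterilized diluvial soil, and boxes stood in a greenhouse at 25 to 30° C.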

redroot pigweed [2] = experiment: Test Example 4: weedkilling efficacy by foliar treatment; L: redroot pigweed
Outline: (§2)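 Seeds are spot-sown into sterilized diluvial soil and covered with about 1.5 cm of soil. After 14 days' greenhouse growth at 25 to 30° C, plants are sprayed on stems and leaves with diluted emulsion at the stated g/ha rate, then scored at 3 weeks.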

rapeseed [3] = experiment: Test Example 4: foliar treatment, effect on crop; g: rapeseed
Outline: as §2

soybean [4] = experiment: Test Example 4: foliar treatment, effect on crop; d: soybean
Outline: as §2

corn [5] = experiment: Test Example 4: foliar treatment, effect on crop; c: corn
Outline: as §2

fig-leafed goosefoot = experiment: Test Example 3: weedkilling efficacy through soil treatment; M: fig-leafed goosefoot
Outline: as §1

green foxtail [6] = experiment: Test Example 3: weedkilling efficacy through soil treatment; E: green foxtail
Outline: as §1

crabgrass [7] = experiment: Test Example 3: weedkilling efficacy through soil treatment; D: crabgrass
Outline: as §1

bulrush [8] = experiment: Test Example 1: weedkilling efficacy, preemergent weed treatment in the submerged state; B: bulrush
Outline: (§3)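 Submerged pre-emergence treatment, water-surface application of compound emulsion at g/ha dosages; 4 cm flooded alluvial soil, weeds sown and 2.5-leaf rice transplanted same day. Rated after 3 weeks, greenhouse.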

Indian mallow [9] = experiment: Test Example 3: weedkilling efficacy through soil treatment; K: Indian mallow
Outline: as §1

catchweed [10] = experiment: Test Example 3: weedkilling efficacy through soil treatment; O: catchweed
Outline: as §1

barnyard grass [11] = experiment: Test Example 1: weedkilling efficacy, preemergent weed treatment in the submerged state; A: barnyard grass
Outline: as §3

wild oat [12] = experiment: Test Example 3: weedkilling efficacy through soil treatment; G: wild oat
Outline: as §1

redroot pigweed [13] = experiment: Test Example 3: weedkilling efficacy through soil treatment; L: redroot pigweed
Outline: as §1

Italian ryegrass [14] = experiment: Test Example 4: weedkilling efficacy by foliar treatment; I: Italian ryegrass
Outline: as §2

catchweed [15] = experiment: Test Example 4: weedkilling efficacy by foliar treatment; O: catchweed
Outline: as §2

oval-leafed pondweed [16] = experiment: Test Example 1: weedkilling efficacy, preemergent weed treatment in the submerged state; C: oval-leafed pondweed
Outline: as §3

wild oat [17] = experiment: Test Example 4: weedkilling efficacy by foliar treatment; G: wild oat
Outline: as §2

soybean [18] = experiment: Test Example 3: soil treatment, effect on crop; d: soybean
Outline: as §1

directly sown rice [19] = experiment: Test Example 4: foliar treatment, effect on crop; b: directly sown rice
Outline: as §2

beet [20] = experiment: Test Example 3: soil treatment, effect on crop; f: beet
Outline: as §1

Indian mallow [21] = experiment: Test Example 4: weedkilling efficacy by foliar treatment; K: Indian mallow
Outline: as §2

bulrush [22] = experiment: Test Example 2: weedkilling efficacy, growth period weed treatment in the submerged state; B: bulrush
Outline: (§4)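 Seedlings at 1-2 leaves in 4 cm-deep submerged alluvial soil received emulsion formulations on the water surface, dosed per hectare; effects were judged 3 weeks on.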

barnyard grass [23] = experiment: Test Example 4: weedkilling efficacy by foliar treatment; F: barnyard grass
Outline: as §2

corn [24] = experiment: Test Example 3: soil treatment, effect on crop; c: corn
Outline: as §1

common wind-grass [25] = experiment: Test Example 3: weedkilling efficacy through soil treatment; J: common wind-grass
Outline: as §1

green foxtail [26] = experiment: Test Example 4: weedkilling efficacy by foliar treatment; E: green foxtail
Outline: as §2

rapeseed [27] = experiment: Test Example 3: soil treatment, effect on crop; g: rapeseed
Outline: as §1

birds-eye speedwell [28] = experiment: Test Example 4: weedkilling efficacy by foliar treatment; p: birds-eye speedwell
Outline: as §2

barnyard grass [29] = experiment: Test Example 3: weedkilling efficacy through soil treatment; F: barnyard grass
Outline: as §1

Italian ryegrass [30] = experiment: Test Example 3: weedkilling efficacy through soil treatment; I: Italian ryegrass
Outline: as §1

directly sown rice [31] = experiment: Test Example 3: soil treatment, effect on crop; b: directly sown rice
Outline: as §1

chickweed [32] = experiment: Test Example 4: weedkilling efficacy by foliar treatment; N: chickweed
Outline: as §2

oval-leafed pondweed [33] = experiment: Test Example 2: weedkilling efficacy, growth period weed treatment in the submerged state; C: oval-leafed pondweed
Outline: as §4

chickweed [34] = experiment: Test Example 3: weedkilling efficacy through soil treatment; N: chickweed
Outline: as §1

crabgrass [35] = experiment: Test Example 4: weedkilling efficacy by foliar treatment; D: crabgrass
Outline: as §2

transplanted rice = experiment: Test Example 1: preemergent weed treatment in the submerged state, effect on crop; a: transplanted rice
Outline: as §3

wheat [36] = experiment: Test Example 4: foliar treatment, effect on crop; e: wheat
Outline: as §2

beet [37] = experiment: Test Example 4: foliar treatment, effect on crop; f: beet
Outline: as §2

wheat [38] = experiment: Test Example 3: soil treatment, effect on crop; e: wheat
Outline: as §1

barnyard grass [39] = experiment: Test Example 2: weedkilling efficacy, growth period weed treatment in the submerged state; A: barnyard grass
Outline: as §4

common wind-grass [40] = experiment: Test Example 4: weedkilling efficacy by foliar treatment; J: common wind-grass
Outline: as §2

black-grass [41] = experiment: Test Example 3: weedkilling efficacy through soil treatment; H: black-grass
Outline: as §1

black-grass [42] = experiment: Test Example 4: weedkilling efficacy by foliar treatment; H: black-grass
Outline: as §2

## COc1cc(Cl)cc(NC(=O)C(C)(C)N2COC(C)=C(c3ccccc3)C2=O)n1 [B-2-46]
birds-eye speedwell [1]
  P (birds-eye speedwell) weedkilling efficacy grade: 5 (weed kill ratio 90% or more, (practically complete withering))
Redroot pigweed [2]
  L (redroot pigweed) weedkilling efficacy grade: 0 (weed kill ratio 5% or less (practically no effect))
Rapeseed [3]
  g (rapeseed) effect on crop grade: 4 (weed kill ratio 70% or more, less than 90%)
Soybean [4]
  d (soybean) effect on crop grade: 0 (weed kill ratio 5% or less (practically no effect))
Corn [5]
  c (corn) effect on crop grade: 1 (weed kill ratio 5% or more, less than 20%)
fig-leafed goosefoot
  M (fig-leafed goosefoot) weedkilling efficacy grade: 4 (weed kill ratio 70% or more, less than 90%)
Green foxtail [6]
  E (green foxtail) weedkilling efficacy grade: 5 (weed kill ratio 90% or more, (practically complete withering))
Crabgrass [7]
  D (crabgrass) weedkilling efficacy grade: 5 (weed kill ratio 90% or more, (practically complete withering))
Bulrush [8]
  B (bulrush) weedkilling efficacy grade: 5 (weed kill ratio 90% or more, (practically complete withering))
Indian mallow [9]
  K (Indian mallow) weedkilling efficacy grade: 3 (weed kill ratio 40% or more, less than 70%)
Catchweed [10]
  O (catchweed) weedkilling efficacy grade: 4 (weed kill ratio 70% or more, less than 90%)
Barnyard grass [11]
  A (barnyard grass) weedkilling efficacy grade: 5 (weed kill ratio 90% or more, (practically complete withering))
Wild oat [12]
  G (wild oat) weedkilling efficacy grade: 3 (weed kill ratio 40% or more, less than 70%)
Redroot pigweed [13]
  L (redroot pigweed) weedkilling efficacy grade: 4 (weed kill ratio 70% or more, less than 90%)
Italian ryegrass [14]
  I (Italian ryegrass) weedkilling efficacy grade: 4 (weed kill ratio 70% or more, less than 90%)
Catchweed [15]
  O (catchweed) weedkilling efficacy grade: 4 (weed kill ratio 70% or more, less than 90%)
oval-leafed pondweed [16]
  C (oval-leafed pondweed) weedkilling efficacy grade: 5 (weed kill ratio 90% or more, (practically complete withering))
Wild oat [17]
  G (wild oat) weedkilling efficacy grade: 3 (weed kill ratio 40% or more, less than 70%)
Soybean [18]
  d (soybean) effect on crop grade: 0 (weed kill ratio 5% or less (practically no effect))
Directly sown rice [19]
  b (directly sown rice) effect on crop grade: 3 (weed kill ratio 40% or more, less than 70%)
Beet [20]
  f (beet) effect on crop grade: 4 (weed kill ratio 70% or more, less than 90%)
Indian mallow [21]
  K (Indian mallow) weedkilling efficacy grade: 3 (weed kill ratio 40% or more, less than 70%)
Bulrush [22]
  B (bulrush) weedkilling efficacy grade: 5 (weed kill ratio 90% or more, (practically complete withering))
Barnyard grass [23]
  F (barnyard grass) weedkilling efficacy grade: 4 (weed kill ratio 70% or more, less than 90%)
Corn [24]
  c (corn) effect on crop grade: 1 (weed kill ratio 5% or more, less than 20%)
Common wind-grass [25]
  J (common wind-grass) weedkilling efficacy grade: 5 (weed kill ratio 90% or more, (practically complete withering))
Green foxtail [26]
  E (green foxtail) weedkilling efficacy grade: 5 (weed kill ratio 90% or more, (practically complete withering))
Rapeseed [27]
  g (rapeseed) effect on crop grade: 4 (weed kill ratio 70% or more, less than 90%)
birds-eye speedwell [28]
  P (birds-eye speedwell) weedkilling efficacy grade: 4 (weed kill ratio 70% or more, less than 90%)
Barnyard grass [29]
  F (barnyard grass) weedkilling efficacy grade: 5 (weed kill ratio 90% or more, (practically complete withering))
Italian ryegrass [30]
  I (Italian ryegrass) weedkilling efficacy grade: 5 (weed kill ratio 90% or more, (practically complete withering))
Directly sown rice [31]
  b (directly sown rice) effect on crop grade: 4 (weed kill ratio 70% or more, less than 90%)
Chickweed [32]
  N (chickweed) weedkilling efficacy grade: 2 (weed kill ratio 20% or more, less than 40%)
oval-leafed pondweed [33]
  C (oval-leafed pondweed) weedkilling efficacy grade: 5 (weed kill ratio 90% or more, (practically complete withering))
Chickweed [34]
  N (chickweed) weedkilling efficacy grade: 4 (weed kill ratio 70% or more, less than 90%)
Crabgrass [35]
  D (crabgrass) weedkilling efficacy grade: 4 (weed kill ratio 70% or more, less than 90%)
Transplanted rice
  a (transplanted rice) effect on crop grade: 0 (weed kill ratio 5% or less (practically no effect))
Wheat [36]
  e (wheat) effect on crop grade: 0 (weed kill ratio 5% or less (practically no effect))
Beet [37]
  f (beet) effect on crop grade: 4 (weed kill ratio 70% or more, less than 90%)
Wheat [38]
  e (wheat) effect on crop grade: 0 (weed kill ratio 5% or less (practically no effect))
Barnyard grass [39]
  A (barnyard grass) weedkilling efficacy grade: 5 (weed kill ratio 90% or more, (practically complete withering))
Common wind-grass [40]
  J (common wind-grass) weedkilling efficacy grade: 5 (weed kill ratio 90% or more, (practically complete withering))
black-grass [41]
  H (black-grass) weedkilling efficacy grade: 5 (weed kill ratio 90% or more, (practically complete withering))
black-grass [42]
  H (black-grass) weedkilling efficacy grade: 4 (weed kill ratio 70% or more, less than 90%)
